Experimental data reported in the supplement of paper PMC8960247.
Counter-ions that a name gives are not always drawn. ± gives the standard error.

What was measured:
621-102 (TSC2-deficient) = test: relative viability vs DMSO; higher = less cytotoxic; conditions: serum: 10% FBS, 72 h
621-103 (TSC2-rescued) = test: as above; conditions: serum: 10% FBS, 72 h
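Also: immortalized renal angiomyolipoma cells stably carrying empty vector or TSC2, dosed in 384-well plates in DMEM, viability normalized to vehicle-treated wells within each plate.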

Row | SMILES | relative viability (621-102 (TSC2-deficient); 0.0001 µM) | relative viability (621-102 (TSC2-deficient); 0.001 µM) | relative viability (621-102 (TSC2-deficient); 0.01 µM) | relative viability (621-102 (TSC2-deficient); 0.1 µM) | relative viability (621-102 (TSC2-deficient); 1 µM) | relative viability (621-102 (TSC2-deficient); 10 µM) | relative viability (621-103 (TSC2-rescued); 0.0001 µM) | relative viability (621-103 (TSC2-rescued); 0.001 µM) | relative viability (621-103 (TSC2-rescued); 0.01 µM) | relative viability (621-103 (TSC2-rescued); 0.1 µM) | relative viability (621-103 (TSC2-rescued); 1 µM) | relative viability (621-103 (TSC2-rescued); 10 µM)
1 | COc1cc(Nc2ncc(F)c(Nc3ccc4c(n3)NC(=O)C(C)(C)O4)n2)cc(OC)c1OC [R406 (free base)] | 114.2 ± 0.84% | 110 ± 2.3% | 105 ± 1.1% | 105 ± 1.2% | 105.4 ± 0.42% | 101 ± 2.1% | 99.45 ± 0.77% | 98.41 ± 0.3% | 101.7 ± 0.23% | 99.5 ± 1.3% | 98.1 ± 0.7% | 70.26 ± 0.23%
2 | Nc1nc(=O)n([C@@H]2CS[C@H](CO)O2)cc1F [Emtricitabine] | 92.1 ± 2.5% | 90.4 ± 1.3% | 95.4 ± 1% | 88.7 ± 4.1% | 92 ± 9.3% | 83.5 ± 6.5% | 106 ± 1.1% | 110 ± 6.2% | 101 ± 4.7% | 105 ± 2.6% | 100 ± 3.7% | 98.4 ± 1.5%
3 | Nc1ccn([C@H]2CC[C@@H](CO)O2)c(=O)n1 [Zalcitabine] | 92.2 ± 0.98% | 99.9 ± 1.3% | 94.1 ± 2.3% | 103.3 ± 0.81% | 102 ± 3.1% | 93.26 ± 0.69% | 90.4 ± 5.7% | 95.48 ± 0.79% | 105 ± 1.1% | 105 ± 4.4% | 100.4 ± 0.83% | 102 ± 1.8%
4 | CCc1c2c(nc3ccc(OC(=O)N4CCC(N5CCCCC5)CC4)cc13)-c1cc3c(c(=O)n1C2)COC(=O)[C@]3(O)CC [Irinotecan] | 105 ± 1.2% | 106 ± 3.8% | 93.9 ± 2.1% | 108 ± 2.8% | 82 ± 0.64% | 33.7 ± 0.69% | 104 ± 4.3% | 98.62 ± 0.9% | 103 ± 1.1% | 99.19 ± 0.57% | 84.6 ± 1.1% | 30.2 ± 0.71%
5 | CN(c1ncccc1CNc1nc(Nc2ccc3c(c2)CC(=O)N3)ncc1C(F)(F)F)S(C)(=O)=O | 99.84 ± 0.61% | 105 ± 2.5% | 97.1 ± 2.1% | 101 ± 1.2% | 94.8 ± 5.8% | 47.7 ± 8.3% | 106 ± 4.2% | 94.4 ± 5.1% | 102 ± 0.37% | 100.6 ± 0.65% | 97.5 ± 6.1% | 38.2 ± 5.9%
6 | Cc1ccc(C(=O)N(CCCN)[C@@H](c2nc3cc(Cl)ccc3c(=O)n2Cc2ccccc2)C(C)C)cc1 [Ispinesibmesilate] | 95.1 ± 1.5% | 81.2 ± 1.3% | 77.62 ± 0.57% | 63.9 ± 3% | 73 ± 1.6% | 1.22 ± 0.096% | 68.8 ± 3% | 51.76 ± 0.14% | 55.41 ± 0.1% | 49.4 ± 1.4% | 53.36 ± 0.26% | 1.19 ± 0.11%
7 | CC[C@@H]1C(=O)N(C)c2cnc(Nc3ccc(C(=O)N[C@H]4CC[C@H](N5CCN(CC6CC6)CC5)CC4)cc3OC)nc2N1C(C)C [BI6727 (Volasertib)] | 96.1 ± 4.3% | 72.9 ± 4.5% | 59.6 ± 3% | 42.4 ± 0.63% | 41.9 ± 0.7% | 1.64 ± 0.065% | 76.3 ± 0.95% | 61.81 ± 0.53% | 53.6 ± 0.88% | 49 ± 2% | 44.3 ± 1.4% | 5.99 ± 0.27%
8 | Cc1cnc(Nc2ccc(N3CCN(C)CC3)cc2)nc1Nc1cccc(S(=O)(=O)NC(C)(C)C)c1 | 116.1 ± 0.23% | 120 ± 3.8% | 109 ± 6.5% | 107 ± 2.4% | 80.4 ± 2.8% | 3.65 ± 0.42% | 102 ± 2.6% | 98.71 ± 0.22% | 95.5 ± 4.1% | 97.4 ± 1.1% | 51 ± 1.3% | 1.33 ± 0.2%
9 | COc1cc2c(Oc3ccc(NC(=O)C4(C(=O)Nc5ccc(F)cc5)CC4)cc3F)ccnc2cc1OCCCN1CCOCC1 | 108 ± 7.4% | 111 ± 6.2% | 98 ± 5.1% | 102 ± 5.8% | 84.55 ± 0.78% | 2.81 ± 0.28% | 97.08 ± 0.89% | 97.1 ± 1.1% | 93.9 ± 3.7% | 91.72 ± 0.35% | 69.1 ± 1.5% | 1.1 ± 0.14%
10 | CC(C)(C)OC(=O)N[C@H]1CCCCC/C=C\[C@@H]2C[C@@]2(C(=O)NS(=O)(=O)C2CC2)NC(=O)[C@@H]2C[C@@H](OC(=O)N3Cc4cccc(F)c4C3)CN2C1=O [Danoprevir] | 105 ± 3.4% | 111 ± 3.4% | 113 ± 1.2% | 114 ± 3.5% | 97.9 ± 4.1% | 105.7 ± 0.94% | 100.3 ± 0.43% | 104.2 ± 0.88% | 101 ± 3.4% | 101.8 ± 0.53% | 98.14 ± 0.84% | 99.4 ± 1.5%
11 | Cc1ccc(NC(=O)c2cccc(N(C)C)c2)cc1NC(=O)c1ccc(O)cc1 | 90.2 ± 2% | 102 ± 2.6% | 100.2 ± 0.28% | 109 ± 5% | 109 ± 5.4% | 92.1 ± 6% | 104.9 ± 0.89% | 102 ± 4% | 101 ± 3.8% | 101 ± 4.5% | 94.6 ± 5% | 98.9 ± 1.4%
12 | OC(CN1CCN(c2cccc(Cl)c2)CC1)C(c1ccccc1)c1ccccc1 (stereo not given) | 102 ± 4.7% | 93.4 ± 2.8% | 104 ± 2.5% | 95.9 ± 2.9% | 102 ± 2.5% | 89.25 ± 0.44% | 83.9 ± 10% | 85.7 ± 8.3% | 95.1 ± 7.2% | 98.58 ± 0.47% | 83.3 ± 4.9% | 79.1 ± 4.4%
13 | COC[C@@H](c1ccc(C(F)(F)F)cc1)N1CCN(C2(C)CCN(C(=O)c3c(C)ncnc3C)CC2)C[C@@H]1C [Vicriviroc Malate] | 100.4 ± 0.12% | 106 ± 2.8% | 113 ± 2.9% | 108 ± 3.2% | 100 ± 1.5% | 100.24 ± 0.061% | 102 ± 3.4% | 99.95 ± 0.79% | 101 ± 2.1% | 99.04 ± 0.74% | 96.3 ± 1.4% | 97.62 ± 0.55%
14 | NC(=O)c1ncn([C@@H]2O[C@H](CO)[C@@H](O)[C@H]2O)c1O [Mizoribine] | 102 ± 2.1% | 98.3 ± 1.2% | 102 ± 1.2% | 100.8 ± 0.97% | 99.9 ± 2.9% | 92.9 ± 2.9% | 104.1 ± 0.62% | 99.8 ± 2% | 99.1 ± 2.2% | 105 ± 3.8% | 98.1 ± 2.5% | 97.4 ± 2.2%
15 | CN(C)C(=O)C(CCN1CCC(O)(c2ccc(Cl)cc2)CC1)(c1ccccc1)c1ccccc1 [Loperamide HCl] | 112.8 ± 0.39% | 107 ± 1.7% | 99.2 ± 2.1% | 109 ± 4.1% | 106 ± 4.2% | 82.5 ± 1.3% | 91.7 ± 4.4% | 84.8 ± 2.2% | 97.2 ± 1.4% | 98.2 ± 1.8% | 92.17 ± 0.64% | 59.5 ± 0.85%
